We go through 5 molecules from publication PMC3401280, “Moth Sex Pheromone Receptors and Deceitful Parapheromones” (PLoS ONE, 2012).

Counter-ions that a name gives are not always drawn. Like-named read-outs stand apart in the source and are kept apart here.

Assay type in all cases: cell-based
One test addresses T1, HvirOR13 (HR13) (Heliothis virescens, UniProt Q6A1K1).
T1 construct: full ORF (AJ748328) in pGEMHE, expressed in Xenopus oocytes; with HvirOrco (HR2)
T1 sequence (Q6A1K1 1-425): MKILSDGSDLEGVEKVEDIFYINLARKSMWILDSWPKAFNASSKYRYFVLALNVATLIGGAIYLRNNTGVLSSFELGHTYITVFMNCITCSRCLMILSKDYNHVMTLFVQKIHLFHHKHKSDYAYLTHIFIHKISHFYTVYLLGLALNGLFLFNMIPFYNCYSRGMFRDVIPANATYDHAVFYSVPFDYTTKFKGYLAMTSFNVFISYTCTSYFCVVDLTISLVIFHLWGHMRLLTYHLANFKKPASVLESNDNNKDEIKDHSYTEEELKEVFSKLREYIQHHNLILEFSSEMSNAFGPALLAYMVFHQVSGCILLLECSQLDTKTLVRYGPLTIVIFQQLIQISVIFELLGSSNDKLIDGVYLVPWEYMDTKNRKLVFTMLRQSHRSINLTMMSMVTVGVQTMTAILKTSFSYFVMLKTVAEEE
T1 sequence (Q8MMI4 1-472 partner): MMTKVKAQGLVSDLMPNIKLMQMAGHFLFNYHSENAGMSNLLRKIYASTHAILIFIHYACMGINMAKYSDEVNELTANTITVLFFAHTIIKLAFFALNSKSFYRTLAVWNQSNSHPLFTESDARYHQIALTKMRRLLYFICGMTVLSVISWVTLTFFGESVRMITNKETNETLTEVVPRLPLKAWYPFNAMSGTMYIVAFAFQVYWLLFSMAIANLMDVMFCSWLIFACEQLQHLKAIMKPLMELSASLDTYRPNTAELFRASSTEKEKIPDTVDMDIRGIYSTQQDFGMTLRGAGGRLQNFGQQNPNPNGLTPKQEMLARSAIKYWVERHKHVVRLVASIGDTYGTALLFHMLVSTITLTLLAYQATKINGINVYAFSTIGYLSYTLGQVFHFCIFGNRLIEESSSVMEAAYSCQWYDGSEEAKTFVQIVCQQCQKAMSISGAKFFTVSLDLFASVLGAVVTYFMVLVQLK
Description: two-electrode voltage clamp in Xenopus oocytes. (Two-electrode voltage clamp is typically applied to oocytes expressing channels or transporters.)

Test [1] addresses T2, AtraOR1 (Amyelois transitella, UniProt J7FXC2).
T2 construct: full ORF (428 residues, JX173648) in pGEMHE, expressed in Xenopus oocytes; with AtraOrco
T2 sequence (J7FXC2 1-427): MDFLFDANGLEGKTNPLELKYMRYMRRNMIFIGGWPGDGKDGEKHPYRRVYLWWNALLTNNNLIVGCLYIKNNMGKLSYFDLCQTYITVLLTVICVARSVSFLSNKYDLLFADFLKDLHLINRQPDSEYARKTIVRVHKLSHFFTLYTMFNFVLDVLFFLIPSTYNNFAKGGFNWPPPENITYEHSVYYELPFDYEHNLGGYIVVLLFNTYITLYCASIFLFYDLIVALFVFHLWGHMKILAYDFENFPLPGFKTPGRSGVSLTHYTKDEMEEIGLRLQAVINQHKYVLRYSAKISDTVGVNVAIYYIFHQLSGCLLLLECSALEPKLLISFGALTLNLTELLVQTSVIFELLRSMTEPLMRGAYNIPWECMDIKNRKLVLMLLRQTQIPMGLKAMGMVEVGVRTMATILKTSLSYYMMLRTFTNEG
T2 sequence (J7G1V0 1-474 partner): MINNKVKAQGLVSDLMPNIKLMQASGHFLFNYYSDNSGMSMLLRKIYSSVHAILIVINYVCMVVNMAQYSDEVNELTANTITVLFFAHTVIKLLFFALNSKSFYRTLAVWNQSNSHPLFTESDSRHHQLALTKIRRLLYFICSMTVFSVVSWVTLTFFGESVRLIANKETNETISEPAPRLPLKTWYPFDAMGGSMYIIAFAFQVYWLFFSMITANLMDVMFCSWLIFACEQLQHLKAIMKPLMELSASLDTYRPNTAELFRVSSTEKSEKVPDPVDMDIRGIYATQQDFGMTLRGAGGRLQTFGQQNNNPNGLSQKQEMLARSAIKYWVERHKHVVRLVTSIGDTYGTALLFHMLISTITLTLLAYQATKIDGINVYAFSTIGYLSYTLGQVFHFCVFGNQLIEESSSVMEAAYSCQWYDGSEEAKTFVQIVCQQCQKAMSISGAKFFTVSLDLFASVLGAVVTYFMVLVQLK
Kind of test: two-electrode voltage clamp in Xenopus oocytes.

Test [2] concerns the target T2, AtraOR1. Kind of test: two-electrode voltage clamp in Xenopus oocytes, screened at […].

In general, EC50 refers to the concentration that produces a half-maximal response. At HvirOR13 (HR13), `CCCC/C=C\CCCCCCCCOC=O` [Z9-14OFor, (9Z)-tetradecen-1-yl formate] showed an EC50 of 33 nM.
`CC/C=C\C=C/CCCCCCCCOC=O` [Z9Z11-14OFor, (9Z,11Z)-tetradecadien-1-yl formate]: a half-maximal response on AtraOR1 [1] (EC50) required 90 nM.
Take `CCCC/C=C\CCCCCCCCCC=O` [Z11-16Ald, (11Z)-hexadecenal]: the EC50 on HvirOR13 (HR13) (read-out: EC50) is 150 nM.
`CC/C=C\C=C/CCCCCCCCCC=O` [Z11Z13-16Ald, (11Z,13Z)-hexadecadienal]: the EC50 on AtraOR1 [1] came out at 499 nM.
Regarding `CC/C=C\C=C/CCCCCCCCCCO` [Z11Z13-16OH, (11Z,13Z)-hexadecadien-1-ol], the “two-electrode voltage clamp in Xenopus oocytes, screened at 100 μM” value on AtraOR1 [2] is recorded as “AtraOR1•AtraOrco-expressing oocytes showed moderate response to Z11Z13-16OH”.
